Data taken from US9936701B2, “Herbicidal compounds” (Syngenta Participations AG, priority 2013, dated 2018).
Values belong to the compound of their own block, whether it stands above or below them.

Legend:
[1] = system: a variety of test species; assay: Pre-emergence herbicidal activity (glasshouse, sprayed one day after sowing, evaluated after 13 days); assay type: in vivo; design: key: 5=total damage to plant; 0=no damage to plant; conditions: application pre-emergence, rate 1000 g/Ha, scale 0-5
Method in brief: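 Compounds are applied pre-emergence as an aqueous spray, formulated in 50:50 acetone/water containing 0.5% Tween 20, to pots sown one day earlier. Plants grow in a controlled glasshouse and are scored 13 days later for damage from 0 to 5.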

[2] = system: a variety of test species; assay: Post-emergence herbicidal activity (glasshouse, sprayed after 8 days cultivation, evaluated after 13 days); assay type: in vivo; design: key: 5=total damage to plant; 0=no damage to plant; conditions: rate 1000 g/Ha, scale 0-5
Method in brief: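 Pot-grown seedlings sprayed 8 days after sowing with active ingredient in acetone/water (50:50) plus 0.5% Tween 20. Glasshouse at 24/16 °C day/night, 14 h light, 65% humidity, watered twice daily. Damage scored after 13 days on a 0–5 scale (5 = total damage, 0 = none).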

Structure (SMILES): CC1=C(Br)C(=O)N(c2noc(C(C)C)c2C#N)C1O (stereo not shown) [A61]
Pre-emergence herbicidal damage score, ABUTH [1]: 5
Pre-emergence herbicidal damage score, ALOMY [1]: 4
Pre-emergence herbicidal damage score, AMARE [1]: 5
Pre-emergence herbicidal damage score, ECHCG [1]: 5
Pre-emergence herbicidal damage score, SETFA [1]: 5
Pre-emergence herbicidal damage score, ZEAMX [1]: 3
melting point: 127 to 129 °C
ABUTH (Abutilon theophrasti) damage score, application post-emergence [2]: 5
ALOMY (Alopecurus myosuroides) damage score, application post-emergence [2]: 5
AMARE (Amaranthus retroflexus) damage score, application post-emergence [2]: 5
ECHCG (Echinochloa crus-galli) damage score, application post-emergence [2]: 5
SETFA (Setaria faberi) damage score, application post-emergence [2]: 5
ZEAMX (Zea mays) damage score, application post-emergence [2]: 3

Structure (SMILES): CCC1=C(Br)C(=O)N(c2noc(C(C)C)c2C#N)C1O (stereo not shown) [A62]
Pre-emergence herbicidal damage score, ABUTH [1]: 5
Pre-emergence herbicidal damage score, ALOMY [1]: 3
Pre-emergence herbicidal damage score, AMARE [1]: 5
Pre-emergence herbicidal damage score, ECHCG [1]: 4
Pre-emergence herbicidal damage score, SETFA [1]: 5
Pre-emergence herbicidal damage score, ZEAMX [1]: 3
melting point: 106 to 108 °C
ABUTH (Abutilon theophrasti) damage score, application post-emergence [2]: 5
ALOMY (Alopecurus myosuroides) damage score, application post-emergence [2]: 4
AMARE (Amaranthus retroflexus) damage score, application post-emergence [2]: 5
ECHCG (Echinochloa crus-galli) damage score, application post-emergence [2]: 5
SETFA (Setaria faberi) damage score, application post-emergence [2]: 5
ZEAMX (Zea mays) damage score, application post-emergence [2]: 3

Structure (SMILES): CCCC1=C(Br)C(=O)N(c2noc(C(C)(C)C)c2C#N)C1OC(=O)CC (stereo not shown) [A73]
Pre-emergence herbicidal damage score, ABUTH [1]: 5
Pre-emergence herbicidal damage score, ALOMY [1]: 3
Pre-emergence herbicidal damage score, AMARE [1]: 5
Pre-emergence herbicidal damage score, ECHCG [1]: 4
Pre-emergence herbicidal damage score, SETFA [1]: 5
Pre-emergence herbicidal damage score, ZEAMX [1]: 3
melting point: 78 to 80 °C
ABUTH (Abutilon theophrasti) damage score, application post-emergence [2]: 5
ALOMY (Alopecurus myosuroides) damage score, application post-emergence [2]: 4
AMARE (Amaranthus retroflexus) damage score, application post-emergence [2]: 5
ECHCG (Echinochloa crus-galli) damage score, application post-emergence [2]: 5
SETFA (Setaria faberi) damage score, application post-emergence [2]: 5
ZEAMX (Zea mays) damage score, application post-emergence [2]: 2

Structure (SMILES): CC1=C(Cl)C(=O)N(c2cc(C(C)(C)C)on2)C1OC(=O)OCC(C)C (stereo not shown) [A80]
Pre-emergence herbicidal damage score, ABUTH [1]: 5
Pre-emergence herbicidal damage score, ALOMY [1]: 4
Pre-emergence herbicidal damage score, AMARE [1]: 5
Pre-emergence herbicidal damage score, ECHCG [1]: 5
Pre-emergence herbicidal damage score, SETFA [1]: 5
Pre-emergence herbicidal damage score, ZEAMX [1]: 3
melting point: 84 to 88 °C
ABUTH (Abutilon theophrasti) damage score, application post-emergence [2]: 5
ALOMY (Alopecurus myosuroides) damage score, application post-emergence [2]: 5
AMARE (Amaranthus retroflexus) damage score, application post-emergence [2]: 5
ECHCG (Echinochloa crus-galli) damage score, application post-emergence [2]: 5
SETFA (Setaria faberi) damage score, application post-emergence [2]: 5
ZEAMX (Zea mays) damage score, application post-emergence [2]: 3

Structure (SMILES): CC1=C(Cl)C(=O)N(c2cc(C(C)(C)C)on2)C1OC(=O)Oc1ccccc1 (stereo not shown) [A84]
Pre-emergence herbicidal damage score, ABUTH [1]: 5
Pre-emergence herbicidal damage score, ALOMY [1]: 4
Pre-emergence herbicidal damage score, AMARE [1]: 5
Pre-emergence herbicidal damage score, ECHCG [1]: 5
Pre-emergence herbicidal damage score, SETFA [1]: 5
Pre-emergence herbicidal damage score, ZEAMX [1]: 3
melting point: 113 to 127 °C
ABUTH (Abutilon theophrasti) damage score, application post-emergence [2]: 5
ALOMY (Alopecurus myosuroides) damage score, application post-emergence [2]: 5
AMARE (Amaranthus retroflexus) damage score, application post-emergence [2]: 5
ECHCG (Echinochloa crus-galli) damage score, application post-emergence [2]: 5
SETFA (Setaria faberi) damage score, application post-emergence [2]: 5
ZEAMX (Zea mays) damage score, application post-emergence [2]: 3

Structure (SMILES): CC(=O)OC1C(C)=C(Cl)C(=O)N1c1noc(C(C)(C)C)c1C#N (stereo not shown) [A94, [1-(5-tert-butyl-4-cyano-isoxazol-3-yl)-4-chloro-3-methyl-5-oxo-2H-pyrrol-2-yl]acetate]
Pre-emergence herbicidal damage score, ABUTH [1]: 5
Pre-emergence herbicidal damage score, ALOMY [1]: 4
Pre-emergence herbicidal damage score, AMARE [1]: 5
Pre-emergence herbicidal damage score, ECHCG [1]: 5
Pre-emergence herbicidal damage score, SETFA [1]: 5
Pre-emergence herbicidal damage score, ZEAMX [1]: 3
melting point: 130 to 132 °C
ABUTH (Abutilon theophrasti) damage score, application post-emergence [2]: 5
ALOMY (Alopecurus myosuroides) damage score, application post-emergence [2]: 5
AMARE (Amaranthus retroflexus) damage score, application post-emergence [2]: 5
ECHCG (Echinochloa crus-galli) damage score, application post-emergence [2]: 5
SETFA (Setaria faberi) damage score, application post-emergence [2]: 5
ZEAMX (Zea mays) damage score, application post-emergence [2]: 4

Continued, in another order:

melting point: 93 to 95 °C
Structure (SMILES): CCC1=C(Cl)C(=O)N(c2noc(C(C)C)c2C#N)C1O (stereo not shown) [A63]
Pre-emergence herbicidal damage score, ABUTH [1]: 5
Pre-emergence herbicidal damage score, ALOMY [1]: 3
Pre-emergence herbicidal damage score, AMARE [1]: 5
Pre-emergence herbicidal damage score, ECHCG [1]: 5
Pre-emergence herbicidal damage score, SETFA [1]: 5
Pre-emergence herbicidal damage score, ZEAMX [1]: 3
ABUTH (Abutilon theophrasti) damage score, application post-emergence [2]: 5
ALOMY (Alopecurus myosuroides) damage score, application post-emergence [2]: 4
AMARE (Amaranthus retroflexus) damage score, application post-emergence [2]: 5
ECHCG (Echinochloa crus-galli) damage score, application post-emergence [2]: 5
SETFA (Setaria faberi) damage score, application post-emergence [2]: 5
ZEAMX (Zea mays) damage score, application post-emergence [2]: 3

melting point: 101 to 102 °C
Structure (SMILES): CCC1=C(Cl)C(=O)N(c2cc(C(C)(C)C#N)on2)C1O (stereo not shown) [A64]
Pre-emergence herbicidal damage score, ABUTH [1]: 4
Pre-emergence herbicidal damage score, ALOMY [1]: 3
Pre-emergence herbicidal damage score, AMARE [1]: 5
Pre-emergence herbicidal damage score, ECHCG [1]: 5
Pre-emergence herbicidal damage score, SETFA [1]: 5
Pre-emergence herbicidal damage score, ZEAMX [1]: 1
ABUTH (Abutilon theophrasti) damage score, application post-emergence [2]: 5
ALOMY (Alopecurus myosuroides) damage score, application post-emergence [2]: 5
AMARE (Amaranthus retroflexus) damage score, application post-emergence [2]: 5
ECHCG (Echinochloa crus-galli) damage score, application post-emergence [2]: 5
SETFA (Setaria faberi) damage score, application post-emergence [2]: 5
ZEAMX (Zea mays) damage score, application post-emergence [2]: 4

melting point: 99 to 100 °C
Structure (SMILES): CCCC1=C(Cl)C(=O)N(c2cc(C(C)(C)C#N)on2)C1O (stereo not shown) [A65]
Pre-emergence herbicidal damage score, ABUTH [1]: 5
Pre-emergence herbicidal damage score, ALOMY [1]: 3
Pre-emergence herbicidal damage score, AMARE [1]: 5
Pre-emergence herbicidal damage score, ECHCG [1]: 5
Pre-emergence herbicidal damage score, SETFA [1]: 5
Pre-emergence herbicidal damage score, ZEAMX [1]: 2
ABUTH (Abutilon theophrasti) damage score, application post-emergence [2]: 5
ALOMY (Alopecurus myosuroides) damage score, application post-emergence [2]: 5
AMARE (Amaranthus retroflexus) damage score, application post-emergence [2]: 5
ECHCG (Echinochloa crus-galli) damage score, application post-emergence [2]: 5
SETFA (Setaria faberi) damage score, application post-emergence [2]: 5
ZEAMX (Zea mays) damage score, application post-emergence [2]: 4

melting point: 150 to 152 °C
Structure (SMILES): C=CC(C)(C)c1onc(N2C(=O)C(Cl)=C(C)C2O)c1C#N (stereo not shown) [A66]
Pre-emergence herbicidal damage score, ABUTH [1]: 5
Pre-emergence herbicidal damage score, ALOMY [1]: 3
Pre-emergence herbicidal damage score, AMARE [1]: 5
Pre-emergence herbicidal damage score, ECHCG [1]: 5
Pre-emergence herbicidal damage score, SETFA [1]: 4
Pre-emergence herbicidal damage score, ZEAMX [1]: 1
ABUTH (Abutilon theophrasti) damage score, application post-emergence [2]: 5
ALOMY (Alopecurus myosuroides) damage score, application post-emergence [2]: 5
AMARE (Amaranthus retroflexus) damage score, application post-emergence [2]: 5
ECHCG (Echinochloa crus-galli) damage score, application post-emergence [2]: 5
SETFA (Setaria faberi) damage score, application post-emergence [2]: 5
ZEAMX (Zea mays) damage score, application post-emergence [2]: 3

melting point: 82 to 84 °C
Structure (SMILES): CCCC1=C(Cl)C(=O)N(c2noc(C(C)(C)CC)c2C#N)C1O (stereo not shown) [A68]
Pre-emergence herbicidal damage score, ABUTH [1]: 4
Pre-emergence herbicidal damage score, ALOMY [1]: 3
Pre-emergence herbicidal damage score, AMARE [1]: 3
Pre-emergence herbicidal damage score, ECHCG [1]: 5
Pre-emergence herbicidal damage score, SETFA [1]: 5
Pre-emergence herbicidal damage score, ZEAMX [1]: 1
ABUTH (Abutilon theophrasti) damage score, application post-emergence [2]: 5
ALOMY (Alopecurus myosuroides) damage score, application post-emergence [2]: 5
AMARE (Amaranthus retroflexus) damage score, application post-emergence [2]: 5
ECHCG (Echinochloa crus-galli) damage score, application post-emergence [2]: 5
SETFA (Setaria faberi) damage score, application post-emergence [2]: 5
ZEAMX (Zea mays) damage score, application post-emergence [2]: 1

melting point: 95 to 97 °C
Structure (SMILES): CCc1onc(N2C(=O)C(Cl)=C(C)C2O)c1C#N (stereo not shown) [A71]
Pre-emergence herbicidal damage score, ABUTH [1]: 4
Pre-emergence herbicidal damage score, ALOMY [1]: 3
Pre-emergence herbicidal damage score, AMARE [1]: 5
Pre-emergence herbicidal damage score, ECHCG [1]: 4
Pre-emergence herbicidal damage score, SETFA [1]: 5
Pre-emergence herbicidal damage score, ZEAMX [1]: 2
ABUTH (Abutilon theophrasti) damage score, application post-emergence [2]: 5
ALOMY (Alopecurus myosuroides) damage score, application post-emergence [2]: 4
AMARE (Amaranthus retroflexus) damage score, application post-emergence [2]: 5
ECHCG (Echinochloa crus-galli) damage score, application post-emergence [2]: 5
SETFA (Setaria faberi) damage score, application post-emergence [2]: 5
ZEAMX (Zea mays) damage score, application post-emergence [2]: 2

melting point: 103 to 105 °C
Structure (SMILES): CC1=C(Cl)C(=O)N(c2cc(C(C)(C)CC#N)on2)C1O (stereo not shown) [A72]
Pre-emergence herbicidal damage score, ABUTH [1]: 5
Pre-emergence herbicidal damage score, ALOMY [1]: 4
Pre-emergence herbicidal damage score, AMARE [1]: 5
Pre-emergence herbicidal damage score, ECHCG [1]: 5
Pre-emergence herbicidal damage score, SETFA [1]: 5
Pre-emergence herbicidal damage score, ZEAMX [1]: 4
ABUTH (Abutilon theophrasti) damage score, application post-emergence [2]: 5
ALOMY (Alopecurus myosuroides) damage score, application post-emergence [2]: 5
AMARE (Amaranthus retroflexus) damage score, application post-emergence [2]: 5
ECHCG (Echinochloa crus-galli) damage score, application post-emergence [2]: 5
SETFA (Setaria faberi) damage score, application post-emergence [2]: 5
ZEAMX (Zea mays) damage score, application post-emergence [2]: 5
